Counter-ions that a name gives are not always drawn. Like-named read-outs stand apart in the source and are kept apart here.
Tests used:
[1] = Acute toxicity test, oral; settings: mouse, in vivo, male ddy mice, 1% tragacanth suspension, 7 days
Method: With 4 to 5 ddy-strain male mice of 6 weeks old as one group, the compound of the present invention was orally administered as a suspension in 1% tragacanth solution, and observation was conducted for 7 days and the number of dead mice was examined to obtain the results shown in Table 5.

SRS = SRS antagonistic action in vitro (isolated guinea pig ileum shrinkage); settings: conc. attenuating control shrinkage to 50% (IC50)
Method: The ileum end portion of a male Hartley-strain guinea pig weighing 200-450 g was extirpated and after washing its lumen, the ileum was mounted within 5 ml of a tissue bath containing a Tylord solution comprising the following components. […] For removing shrinkage with hystamine and acetylcholine, 10^-7 g/ml of mepylamin and 5×10^-8 g/ml of atropin were added to the above buffer. […] The ileum was loaded passively with 0.5 g of tension and the ileum shrinkage reaction to SRS extracted from guinea pig lung was obtained. The persistent shrinkage height by one unit of SRS (corresponding to 5 ng of hystamine) was used as control.

LTD4 = LTD4 antagonistic action in vivo (airway resistance increase, Konzett-Roessler); set-up: species or system guinea pig; settings: Cavia porcellus; for inhibition in vivo at 3 mg/kg: read-out: Airway resistance increase inhibition
[2] = Tables 2-1 to 2-4, head prints no unit, read-out: Anti-SRS action [minimum effective conc.]
[3] = Tables 2-6 to 2-11 and Table 3, read-out: Anti-SRS action [minimum effective conc. (M)]
[4] = intraduodenal, LTD4 0.1-1.0 μg/kg i.v.
[5] = intraduodenal, 3 mg/kg, LTD4 0.1-1.0 μg/kg i.v.

IC50 (SRS; [3]) [M]	SMILES	LD50 at 168 h [1] [mg/kg]	further results
–	O=C([O-])CCCNc1cccc(/C=C/c2nc3ccccc3s2)c1.[Na+]	2000 to 3000	–
–	O=C(O)[C@H]1CCCC[C@H]1C(=O)Nc1cccc(/C=C/c2nc3ccccc3s2)c1 (relative stereo) [compound 3]	–	IC50 (SRS; [2]): 5e-08 M
–	O=C(O)[C@H]1CCCC[C@H]1C(=O)Nc1cccc(/C=C/c2nc3cc(Cl)ccc3s2)c1 (relative stereo) [compound 26]	> 3000	–
–	O=C(O)[C@H]1CCCC[C@H]1C(=O)Nc1cccc(/C=C/c2nc3ccccc3s2)c1 (relative stereo) [compound 216]	> 3000	–
–	Cc1ccc2sc(/C=C/c3cccc(NC(=O)[C@@H]4CCCC[C@@H]4C(=O)O)c3)nc2c1 (relative stereo) [compound 232]	3000	–
–	O=C(O)[C@H]1CCCC[C@H]1C(=O)Nc1cccc(/C=C/c2nc(-c3ccccc3)cs2)c1 (relative stereo) [compound 248]	> 3000	–
–	O=C(O)[C@H]1CC=CC[C@H]1C(=O)Nc1cccc(/C=C/c2nc(-c3ccccc3)cs2)c1 (relative stereo) [compound 249]	1000 to 2000	–
–	Cc1nc(/C=C/c2cccc(NC(=O)[C@H]3CCCC[C@H]3C(=O)O)c2)sc1C (relative stereo) [compound 315]	1000 to 2000	–
–	Cc1nc(/C=C/c2cccc(NC(=O)[C@H]3CC=CC[C@H]3C(=O)O)c2)sc1C (relative stereo) [compound 317]	1030	–
–	CCc1nc(/C=C/c2cccc(NC(=O)[C@H]3CCCC[C@H]3C(=O)O)c2)sc1C (relative stereo) [compound 324]	1380	–
–	O=C(Nc1cccc(CCc2nc3ccccc3s2)c1)[C@H]1CCCC[C@H]1C(=O)O (relative stereo) [compound 355]	1930	–
–	O=C(O)[C@@H]1CCCC[C@H]1C(=O)Nc1cccc(/C=C/c2nc3ccccc3s2)c1 (relative stereo) [compound 418]	< 3000	–
–	O=C(O)c1ccccc1C(=O)Nc1cccc(/C=C/c2nc3ccccc3s2)c1 [compound 2]	> 3000	IC50 (SRS; [2]): 5e-09 M
–	O=C(O)/C=C\C(=O)Nc1cccc(/C=C/c2nc(-c3ccccc3)cs2)c1 [compound 34]	–	IC50 (SRS; [2]): 2e-08 M
–	Cc1csc(/C=C/c2cccc(NC(=O)/C=C\C(=O)O)c2)n1 [compound 54]	–	IC50 (SRS; [2]): 5e-07 M
2e-07	O=C(O)/C=C\C(=O)Nc1cccc(NCc2nc3ccccc3s2)c1 [compound 150]	–	–
–	O=C(O)/C=C/C(=O)Nc1cccc(/C=C/c2nc3ccccc3s2)c1 [compound 167]	–	IC50 (SRS; [2]): 2e-07 M
–	O=C(O)C(=O)Nc1cccc(/C=C/c2nc3ccccc3s2)c1 [compound 168]	–	IC50 (SRS; [2]): 1e-07 M
1e-06	CC(C)CCOC(=O)/C=C\C(=O)Nc1cccc(/C=C/c2nc3ccccc3s2)c1 [compound 189, 2-[trans-3-(cis-3-isoamyloxycarbonylpropenamide)styryl]benzothiazole]	–	–
–	COC(=O)CCC(=O)Nc1cccc(/C=C/c2nc3ccccc3s2)c1 [compound 192]	–	IC50 (SRS; [2]): 5e-07 M
2e-07	CCOC(=O)CCCNc1cccc(/C=C/c2nc3ccccc3s2)c1 [compound 199, 2-[trans-3-(3-ethoxycarbonylpropyl)aminostyryl]benzothiazole]	–	–
–	O=C(CC1(C(=O)O)CCCCC1)Nc1cccc(/C=C/c2nc3ccccc3s2)c1 [compound 223]	–	inhibition in vivo at 3 mg/kg (LTD4; [5]): 87%
–	CCCCC(CC(=O)Nc1cccc(/C=C/c2nc3ccccc3s2)c1)C(=O)O (stereo not shown) [compound 227]	–	IC50 (SRS; [2]): 5e-08 M; inhibition in vivo at 3 mg/kg (LTD4; [5]): 71%
–	Cc1ccc2sc(/C=C/c3cccc(NC(=O)c4ccccc4C(=O)O)c3)nc2c1 [compound 231]	–	IC50 (SRS; [2]): 5e-09 M
–	O=C(O)c1ccccc1C(=O)Nc1cccc(/C=C/c2nc(-c3ccccc3)cs2)c1 [compound 247]	> 3000	–
–	Cc1cc(C(=O)O)c(C(=O)Nc2cccc(/C=C/c3nc(-c4ccccc4)cs3)c2)cc1C [compound 253]	–	IC50 (SRS; [2]): 5e-08 M
–	CCCc1csc(/C=C/c2cccc(NC(=O)c3ccccc3C(=O)O)c2)n1 [compound 272]	–	inhibition in vivo at 10 mg/kg (LTD4; [4]): 37%
–	CCCCCc1csc(/C=C/c2cccc(NC(=O)c3ccccc3C(=O)O)c2)n1 [compound 281]	> 3000	–

IC50 (SRS; [3]) [M]	SMILES	LD50 at 168 h [1] [mg/kg]	further results
–	CCCCCCc1csc(/C=C/c2cccc(NC(=O)c3ccccc3C(=O)O)c2)n1 [compound 287]	–	IC50 (SRS; [2]): 2e-05 M
–	CCCCCCCc1csc(/C=C/c2cccc(NC(=O)c3ccccc3C(=O)O)c2)n1 [compound 291]	–	IC50 (SRS; [2]): 1e-07 M
–	CC(C)(C)c1csc(/C=C/c2cccc(NC(=O)CCC(=O)O)c2)n1 [compound 297]	–	inhibition in vivo at 10 mg/kg (LTD4; [4]): 62%
–	CC(C)(C)c1csc(/C=C/c2cccc(NC(=O)CCCC(=O)O)c2)n1 [compound 298]	–	IC50 (SRS; [2]): 5e-05 M
–	CC(C)c1csc(/C=C/c2cccc(NC(=O)c3ccccc3C(=O)O)c2)n1 [compound 300]	1000 to 2000	–
–	CC(C)c1csc(/C=C/c2cccc(NC(=O)CCCC(=O)O)c2)n1 [compound 303]	2000	–
–	CC(C)c1csc(/C=C/c2cccc(NC(=O)CC(C(=O)O)c3ccccc3)c2)n1 (stereo not shown) [compound 307]	–	IC50 (SRS; [2]): 2e-09 M
–	Cc1nc(/C=C/c2cccc(NC(=O)/C=C\C(=O)O)c2)sc1C [compound 313]	1560	–
–	Cc1nc(/C=C/c2cccc(NC(=O)c3ccccc3C(=O)O)c2)sc1C [compound 314]	2000 to 3000	–
–	CCc1nc(/C=C/c2cccc(NC(=O)CCC(=O)O)c2)sc1C [compound 325]	2000	–
–	CCc1nc(/C=C/c2cccc(NC(=O)CCCC(=O)O)c2)sc1C [compound 326]	< 3000	–
–	CCc1nc(/C=C/c2cccc(NC(=O)c3cc(C)c(C)cc3C(=O)O)c2)sc1C [compound 328]	–	IC50 (SRS; [2]): 5e-09 M
–	CCCc1nc(/C=C/c2cccc(NC(=O)/C=C\C(=O)O)c2)sc1CC [compound 332]	–	IC50 (SRS; [2]): 1e-07 M
–	O=C(O)/C=C\C(=O)Nc1cccc(CCc2nc3ccccc3s2)c1 [compound 353]	3310	inhibition in vivo at 30 mg/kg (LTD4; [4]): 79%
1e-08	O=C(CC1(C(=O)O)CCCCC1)Nc1cccc(CCc2nc3ccccc3s2)c1 [compound 358]	–	–
1e-07	O=C(O)/C=C\C(=O)Nc1cccc(OCc2nc3ccccc3s2)c1 [compound 368]	–	–
1e-05	O=C(O)/C=C\C(=O)Nc1cccc(COCc2nc3ccccc3s2)c1 [compound 369]	–	–
5e-07	O=C(O)CCCNc1cccc(CCc2nc3ccccc3s2)c1 [compound 376]	–	–
2e-07	Cc1nc(C=Cc2cccc(NCCCC(=O)O)c2)sc1C [compound 377]	–	–
–	CCc1nc(C=Cc2cccc(NCCCC(=O)O)c2)sc1C [compound 382]	1930	–
1e-08	CCc1csc(C=Cc2cccc(NCCCC(=O)O)c2)n1 [compound 387]	–	–
1e-07	CCCCc1csc(C=Cc2cccc(NCCCC(=O)O)c2)n1 [compound 389]	–	–
2e-07	O=C(O)CCCCNc1cccc(/C=C/c2nc3ccccc3s2)c1 [compound 398]	–	–
1e-05	O=C(O)CCCCCc1cccc(/C=C/c2nc3ccccc3s2)c1 [compound 411]	–	–
1e-06	O=C(CCCO)Nc1cccc(/C=C/c2nc3ccccc3s2)c1 [compound 422, 2-[trans-3-(4-hydroxybutanoylamino)styryl]benzothiazole]	–	–
5e-07	C(=C\c1nc2ccccc2s1)/c1cccc(NCCCc2nnn[nH]2)c1 [compound 424, 2-[trans-3-(3-(5-tetrazolyl)propylamino)styryl]benzothiazole]	–	–
–	O=C([O-])CCCNc1cccc(/C=C/c2nc3ccccc3s2)c1.[Na+] [sodium salt]	–	inhibition in vivo at 3 mg/kg (LTD4): 55%

SMILES	IC50 (SRS; [3]) [M]	LD50 at 168 h [1] [mg/kg]	further results
O=C(O)[C@H]1CCCC[C@H]1C(=O)Nc1cccc(/C=C/c2nc3ccccc3s2)c1 (relative stereo) [compound 414, 2-[trans-3-(cis-2-carboxycyclohexanoyl)aminostyryl]benzothiazole N-methyl-D-glucamine salt]	1e-06	–	–
O=C(O)/C=C\C(=O)Nc1cccc(/C=C/c2nc3ccccc3s2)c1 [compound 213, 2-[trans-3-(cis-3-carboxypropenamide)styryl]benzothiazole sodium salt]	5e-08	> 3000	inhibition in vivo at 30 mg/kg (LTD4; [4]): 51%
OCCCCOc1cccc(/C=C/c2nc3ccccc3s2)c1 [compound 423, 2-[trans-3-(4-hydroxybutoxy)styryl]benzothiazole]	1e-05	–	–
O=C(O)CCNc1cccc(/C=C/c2nc3ccccc3s2)c1 [compound 426, 2-[trans-3-(2-carboxyethylamino)styryl]benzothiazole sodium salt]	2e-07	–	–
